From patent US9968605B2, “2-(2-methylamino-pyrimidin-4-yl)-1h-indole-5-carboxylic acid [(S)-1-carbamoyl-2-(phenyl-pyrimidin-2-yl-amino)-ethyl]-amide for use in the treatment of pain associated to osteoarthritis” (SANOFI, priority 2014, dated 2018)
“Also recorded” adds a separate entry of the source.

Key:
patients with knee OA [1] = experiment: Clinical trial: safety and tolerability of a single intra-articular dose in patients with knee OA; format: in vivo
Description: (§1) The objective of this study was to assess in patients with knee OA, the efficacy, safety and tolerability of a single intra-articular dose of Compound A.
(§2) This was a two-center, double-blind, randomized, placebo controlled, single dose study. Following a review of the safety data up to Day 28 from Part 1 of this study, the second part of the study assessed the efficacy of a single dose of Compound A, selected from the maximum administered/tolerated dose from Part 1 (60 mg), in relieving symptoms of patients with knee OA.
(§3) Screening was performed within 28 days of dosing. Following the single dose of study medication administered via intra-articular injection on Day 1, each patient remained at the Study Unit for 4 hours after dosing and, provided there was no difficulty with tolerability, patients were discharged and returned periodically for outpatient visits. Each patient was followed up to Day 168 (end-of-study visit); therefore the study period was 28 weeks.
Safety was assessed by adverse event (AE) monitoring, standard clinical laboratory evaluations, physical examination, vital sign and electrocardiogram (ECG) assessments, local tolerability at site of injection and assessments of the knee joint (effusion/worsening of effusion).
The safety analysis was based on the review of descriptive statistics and individual data for AEs, clinical laboratory, vital signs, and ECG parameters. Adverse events were coded according to the Medical Dictionary for Regulatory Activities (version 15.1) and the numbers of subjects with treatment-emergent AEs (TEAEs) were tabulated (counts and percents). For clinical laboratory, vital signs, and ECG data, the analyses of abnormalities were based on the definitions of potentially clinically significant abnormalities (PCSAs; definitions according to version 2.0 dated 14 Sep. 2009). Local tolerance/tolerability at the site of injection was summarized by descriptive statistics.

patients with knee OA [2] = experiment: Clinical trial: WOMAC index scores after a single intra-articular dose in patients with knee OA; format: in vivo, human; details: for Total WOMAC score, absolute change from baseline, Estimate / WOMAC subscore for Pain, absolute change from baseline, Estimate / WOMAC subscore for Physical function, absolute change from baseline, Estimate / WOMAC subscore for Stiffness, absolute change from baseline, Estimate: 60 mg single intra-articular dose; for Total WOMAC score, Compound A 60 mg vs Placebo, Estimate / WOMAC subscore for Pain, Compound A 60 mg vs Placebo, Estimate / WOMAC subscore for Physical function, Compound A 60 mg vs Placebo, Estimate / WOMAC subscore for Stiffness, Compound A 60 mg vs Placebo, Estimate: difference in change from baseline; for WOMAC subscore for Stiffness, Effect size (90% CI): vs placebo
Description: as §1, §2, §3
Compound A was supplied as a lyophilized cake (to be reconstituted in water for injection for intra-articular administration) in vials containing 20, 40 and 80 mg total of active Compound A. The placebo was commercially available 0.9% saline solution for the injection.
The following sub-scales from the WOMAC Index were used to assess the activity of the drug upon pain, stiffness and physical function. Each item will be rated on the basis of the patient's symptoms over the last 48 h, by means of a 5 point Likert Scale: none, mild, moderate, severe, or very severe.
The primary endpoint was the WOMAC Pain sub-scale at Day 56 for evidence of efficacy (change from baseline).
Inclusion criteria are: • Diagnosis of primary knee osteoarthritis, based upon the following: • X-ray or MRI evidence within the last 6 months for joint space narrowing and osteophyte formation—patients will be Kellgren and Lawrence classification II/III, • Total WOMAC score 24-72 and • Fulfilling the American College of Rheumatology Clinical and Radiographic criteria for OA.
Analysis of Efficacy Variables:
Using the primary analysis efficacy population and for WOMAC sub-score for pain on Day 56, treatment mean differences (Compound A minus placebo) in change from baseline and their one-sided 95% upper limit of the confidence interval were computed using linear fixed effects models with fixed terms for treatment group and sex, and with an unstructured R variance/covariance matrix on treatment group for patient within sex blocks, using SAS Proc Mixed®. In case of convergence problems, other variance-covariance structures were explored.
The signs and symptoms of OA were measured with a standard instrument as WOMAC index.
WOMAC index consists of 24 questions in 3 dimensions subscales: • Pain subcale (5 items) • Stiffness subscale (2 items) • Physical function subscale (17 items)
Each item was rated by means of a 5 point Likert scale: none (=0), mild (=1), moderate (=2), severe (=3) and very severe (=4) A total WOMAC score and a WOMAC subscore for each dimension was calculated.
A supportive analysis to the primary analysis was conducted over patients from the efficacy population and with at least one post-dose WOMAC sub-score measurement, using a last observations carried forward (LOCF) approach up to Day 56.
The total WOMAC score and WOMAC sub-score for stiffness and physical function were analysed in the same way as for the primary analysis of WOMAC sub-score for pain.
The treatment mean difference between groups with their one-sided 95% upper limit of the CI was estimated for all other days for all scores. Time profile plots of treatment mean differences with their one-sided 95% upper limit of the CI were provided.
For each WOMAC score (total and sub-scores), the effect size based on the estimated (within the fixed effects model frameworks) mean treatment difference in change from baseline between groups (active versus placebo) were provided at each day with their corresponding 95% CI.

patients with knee OA [3] = experiment: as above; format: in vivo, human; details: Day 56; vs placebo; efficacy population (all patients); negative = positive effect of drug
[4] = Day 56, efficacy population (all patients)
[5] = Day 56, patients with effusion at baseline

CNc1nccc(-c2cc3cc(C(=O)N[C@@H](CN(c4ccccc4)c4ncccn4)C(N)=O)ccc3[nH]2)n1 [Compound A, 2-(2-methylamino-pyrimidin-4-yl)-1H-indole-5-carboxylic acid [(S)-1-carbamoyl-2-(phenyl-pyrimidin-2-yl-amino)-ethyl]-amide]
reported TEAEs and their severity, including local reactions at the injection site, vs placebo (0.9% saline) (patients with knee OA [1]; 60 mg single intra-articular dose): no difference between Compound A and placebo | tolerability of single doses (patients with knee OA [1]; 60 mg single intra-articular dose, patients with knee OA): well tolerated | most frequent TEAE (patients with knee OA [1]; after administration of Compound A or placebo, followed by injection site reactions): Arthralgia | Total WOMAC score, absolute change from baseline, Estimate (patients with knee OA [2]; [4]): −10.5566 | WOMAC subscore for Pain, absolute change from baseline, Estimate (patients with knee OA [2]; [4]): −1.8229 | WOMAC subscore for Physical function, absolute change from baseline, Estimate (patients with knee OA [2]; [4]): −7.7966 | WOMAC subscore for Stiffness, absolute change from baseline, Estimate (patients with knee OA [2]; [4]): −0.9406 | Total WOMAC score, absolute change from baseline, Estimate (patients with knee OA [2]; [5]): −17.0761 | WOMAC subscore for Pain, absolute change from baseline, Estimate (patients with knee OA [2]; [5]): −2.9701 | WOMAC subscore for Physical function, absolute change from baseline, Estimate (patients with knee OA [2]; [5]): −12.9658 | WOMAC subscore for Stiffness, absolute change from baseline, Estimate (patients with knee OA [2]; [5]): −1.1672 | effect sizes for WOMAC subscores (patients with knee OA [2]; Day 56, all patients, negative indicates a positive effect of drug against placebo): 0.12 to −0.04 | Total WOMAC score, Compound A 60 mg vs Placebo, Estimate (patients with knee OA [2]; [4]): 1.0495 | WOMAC subscore for Pain, Compound A 60 mg vs Placebo, Estimate (patients with knee OA [2]; [4]): 0.4554 | WOMAC subscore for Physical function, Compound A 60 mg vs Placebo, Estimate (patients with knee OA [2]; [4]): 0.6854 | WOMAC subscore for Stiffness, Compound A 60 mg vs Placebo, Estimate (patients with knee OA [2]; [4]): −0.0573 | Total WOMAC score, Compound A 60 mg vs Placebo, Estimate (patients with knee OA [2]; [5]): −9.3562 | WOMAC subscore for Pain, Compound A 60 mg vs Placebo, Estimate (patients with knee OA [2]; [5]): −1.7213 | WOMAC subscore for Physical function, Compound A 60 mg vs Placebo, Estimate (patients with knee OA [2]; [5]): −6.8188 | WOMAC subscore for Stiffness, Compound A 60 mg vs Placebo, Estimate (patients with knee OA [2]; [5]): −0.9028 | effect on WOMAC Pain subscores, other WOMAC subscores or Total score (patients with knee OA [2]; Day 56, efficacy population (all patients), 60 mg): neither a clinically significant nor a statistically significant effect | WOMAC subscore for Stiffness, Effect size (90% CI) (patients with knee OA [2]; Day 56, efficacy population (all patients), negative = positive effect of drug): −0.04 | WOMAC subscore for Stiffness, Effect size (90% CI) (patients with knee OA [2]; [5]): −0.71 | efficacy on pain in patients with knee osteoarthritis and effusion (WOMAC assessment) (patients with knee OA [2]; subgroup of patients with effusion at baseline): significant efficacy; also recorded: significant effect | Total WOMAC score, Effect size (90% CI) (patients with knee OA [3]): 0.06 | WOMAC subscore for Pain, Effect size (90% CI) (patients with knee OA [3]): 0.12 | WOMAC subscore for Physical function, Effect size (90% CI) (patients with knee OA [3]): 0.06
